Ten molecules from ChEMBL document CHEMBL1201862, “PubChem BioAssay data set” (2004) can be followed below.

What all share (assay): NCI tumour cell line growth inhibition, 48 h
For assay [1], the system named is 786-0.
The subject of assay [2] is A498.
Assay [3] has as its system HCT-15.
The test system of assay [4] is HOP-62.
The subject of assay [5] is HT-29.
The test system of assay [6] is Hs-578T.
Assay [7] concerns K562.
Assay [8] deals with LOX IMVI.
In assay [9] the test system is MOLT-4.
Assay [10] has as its system NCI-H23.
Assay [11] has as its system NCI-H460.
Assay [12] concerns NCI-H522.
Assay [13] has as its system NCI/ADR-RES.
The subject of assay [14] is OVCAR-5.
Assay [15] deals with RPMI-8226.
The test system of assay [16] is SK-MEL-28.
In assay [17] the test system is SK-MEL-2.
Assay [18] concerns SNB-75.
Assay [19] has as its system U-251.
Assay [20] deals with UACC-257.

The structures appear in SMILES notation.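 Test compounds were applied to cells in 96-well plates for 48 hours at 5 doses. GI50 is the concentration that inhibits growth by half.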 The source made the active and inactive calls. No stated cut-off is given here; in the data, active = GI50 up to about 1.1 µM and inactive = higher.

Regarding `COc1ccc2c(c1C)C(=O)C(O)(CC=C(C)C)O2` (stereo not given), the GI50 is > 100 µM (inactive) in assay [1]; > 100 µM (inactive) in assay [2]; more than 100 µM in [3]; > 100 µM (inactive) in assay [4]; > 100 µM (inactive) in assay [5]; > 100 µM (inactive) in [6]. Further, the GI50 in assay [7], in [8], in [9], in assay [10], in [11] and in [12] was > 100 µM (inactive) in each case. In addition, the GI50 in assay [13], in assay [14], in [15], in assay [16], in assay [17] and in assay [18] was > 100 µM (inactive) each time. Further, the GI50 in assay [19] and in assay [20] was > 100 µM (inactive) in each case.
Consider `CCCCCCCCCCCCOP(=O)(O)OP(=O)(O)OCC1OC(n2ccc(N)nc2=O)CC1O` (stereo not given), for which the GI50 in [1] is > 100 µM (inactive); in assay [2], > 100 µM (inactive); in [3], more than 100 µM; in assay [4], > 100 µM (inactive); in [5] it was > 100 µM (inactive); in assay [6], > 100 µM (inactive). For the same molecule, the GI50 in [7], in assay [8], in assay [9], in assay [10], in assay [11] and in assay [12] was > 100 µM (inactive) each time. In addition, the GI50 in assay [13] is > 100 µM (inactive); in assay [14] it was > 100 µM (inactive); in assay [15], > 100 µM (inactive); in [16], > 100 µM (inactive); in [17], > 100 µM (inactive); in assay [18], 95.9 µM (inactive). In addition, the GI50 in assay [19] and in assay [20] was > 100 µM (inactive) in each case.
For the molecule `Cn1/c(=N\c2ccccc2[N+](=O)[O-])sc2ccccc21`, the GI50 in [1] was 30.7 µM (inactive); in assay [2], 54.8 µM (inactive); in assay [3], 2.61 µM; in [4], 20.6 µM (inactive); in [5] it was > 100 µM (inactive); in assay [6] it was 16.5 µM (inactive). Also, the GI50 in assay [7] was > 100 µM (inactive); in assay [8], > 100 µM (inactive); in [9], > 100 µM (inactive); in assay [10], 26 µM (inactive); in assay [11], 50.2 µM (inactive); in assay [12], 9.29 µM (inactive). For the same molecule, the GI50 was 95.9 µM (inactive) in assay [13]; 22 µM (inactive) in assay [14]; > 100 µM (inactive) in [15]; 89.7 µM (inactive) in [16]; 33.7 µM (inactive) in assay [17]; 18.4 µM (inactive) in assay [18]. The GI50 in [19] is 36.6 µM (inactive); in assay [20] it was 29.9 µM (inactive).
As for `N#Cc1c(-c2ccc(Cl)cc2)c2c(n(C3OC(CO)C(O)C(O)C3O)c1=S)CCCC2` (stereo not given), the GI50 in assay [1] was 60.8 µM (inactive); in assay [2], 49.3 µM (inactive); in assay [3], more than 100 µM; in assay [4], 85.3 µM (inactive); in [5], 73.3 µM (inactive); in assay [6], > 100 µM (inactive). Besides, the GI50 was 37.8 µM (inactive) in [7]; 47.2 µM (inactive) in assay [8]; 26.1 µM (inactive) in [9]; > 100 µM (inactive) in assay [10]; 54.2 µM (inactive) in [11]; 63.2 µM (inactive) in [12]. The GI50 in assay [13] was > 100 µM (inactive); in assay [14] it was > 100 µM (inactive); in assay [15], 44.3 µM (inactive); in assay [16] it was 78.7 µM (inactive); in assay [17], > 100 µM (inactive); in assay [18] it was > 100 µM (inactive). In addition, the GI50 in [19] was 64.9 µM (inactive); in assay [20], > 100 µM (inactive).
As for `O=c1sc2c(s1)-c1sc(=O)sc1SS2`, the GI50 in assay [1] was > 100 µM (inactive); in assay [2] it was > 42.9 µM (inactive); in assay [3], 18.7 µM; in [4], > 100 µM (inactive); in assay [5] it was > 42.1 µM (inactive); in [6], 81.7 µM (inactive). Also, the GI50 in assay [7] is 55.5 µM (inactive); in assay [8], > 60.4 µM (inactive); in assay [9], > 61 µM (inactive); in assay [10], > 37.5 µM (inactive); in [11] it was > 100 µM (inactive); in assay [12], > 91.4 µM (inactive). Besides, the GI50 in [13] was 26.7 µM (inactive); in [14], 34.1 µM (inactive); in assay [15] it was > 100 µM (inactive); in assay [16] it was > 100 µM (inactive); in [17], > 100 µM (inactive); in assay [18] it was 7.71 µM (inactive). In addition, the GI50 is > 31.6 µM (inactive) in [19] and > 96.8 µM (inactive) in assay [20].
For the molecule `O=C(CSc1nc2ccc(I)cc2c(=O)n1Cc1ccccc1)NN1C(=O)c2ccccc2C1=O`, the GI50 in [1] was 6.04 µM (inactive); in [2], 14.8 µM (inactive); in assay [3], 30.1 µM; in assay [4], 4.75 µM (inactive); in assay [5] it was 24.8 µM (inactive); in assay [6], 6.47 µM (inactive). The GI50 in [7] was 31 µM (inactive); in [8] it was 15 µM (inactive); in [9], 28.4 µM (inactive); in [10], 18.2 µM (inactive); in [11], 22.9 µM (inactive); in [12] it was 14.9 µM (inactive). Further, the GI50 in assay [13] was 15.5 µM (inactive); in [14], 26.2 µM (inactive); in assay [15], 33.3 µM (inactive); in assay [16] it was 17.9 µM (inactive); in assay [17] it was 10.8 µM (inactive); in assay [18], 4.3 µM (inactive). Besides, the GI50 is 12.7 µM (inactive) in assay [19] and 17.5 µM (inactive) in assay [20].
In the case of `Cc1ccnc2c1c(=O)c1ccccc1n2C`, the GI50 is 53.6 µM (inactive) in [1]; 31.8 µM (inactive) in [2]; 38 µM in assay [3]; 40.7 µM (inactive) in assay [4]; 29.5 µM (inactive) in [5]; 25.3 µM (inactive) in assay [6]. Further, the GI50 is 50.7 µM (inactive) in assay [7]; 37.6 µM (inactive) in assay [8]; 23.9 µM (inactive) in assay [9]; 49.1 µM (inactive) in [10]; 13.1 µM (inactive) in assay [11]; 19.1 µM (inactive) in assay [12]. Besides, the GI50 in assay [13] was 40.6 µM (inactive); in assay [14] it was 54.5 µM (inactive); in [15], 36.7 µM (inactive); in assay [16] it was 43 µM (inactive); in [17], 52.1 µM (inactive); in assay [18], 17.6 µM (inactive). The GI50 in [19] was 39.8 µM (inactive); in assay [20] it was 37.1 µM (inactive).
As to `CC(=O)O[C@@H](c1nccn1Cc1ccccc1)[C@H]1OC(C)(C)O[C@@H]1[C@H]1COC(C)(C)O1`, the GI50 was > 100 µM (inactive) in assay [1]; > 100 µM (inactive) in assay [2]; more than 100 µM in assay [3]; > 100 µM (inactive) in assay [4]; > 100 µM (inactive) in [5]; > 100 µM (inactive) in [6]. Moreover, the GI50 in [7], in assay [8], in [9], in [10], in assay [11] and in [12] was > 100 µM (inactive) each time. Besides, the GI50 in [13], in assay [14], in assay [15], in assay [16], in assay [17] and in assay [18] was > 100 µM (inactive) in each case. In addition, the GI50 in assay [19] and in assay [20] was > 100 µM (inactive) each time.
Take `CCOP(=O)(OCC)C(Nc1ccc(F)cc1)c1ccccc1` (stereo not given): the GI50 in assay [1] was > 100 µM (inactive); in [2], > 100 µM (inactive); in assay [3] it was more than 100 µM; in assay [4], > 100 µM (inactive); in assay [5] it was > 100 µM (inactive); in assay [6], > 100 µM (inactive). For the same molecule, the GI50 is 57.9 µM (inactive) in assay [7]; > 100 µM (inactive) in [8]; 92.9 µM (inactive) in assay [9]; > 100 µM (inactive) in [10]; > 100 µM (inactive) in [11]; 56.5 µM (inactive) in assay [12]. For the same molecule, the GI50 in assay [13], in assay [14], in [15], in assay [16], in assay [17] and in assay [18] was > 100 µM (inactive) throughout. Besides, the GI50 in assay [19] and in [20] was > 100 µM (inactive) throughout.
With `O=c1c2ccccc2sc2c(CO)ccc(NCCN3CCCCC3)c12`, the GI50 is 2.47 µM (inactive) in [1]; 3.15 µM (inactive) in assay [2]; 3.56 µM in assay [3]; 3.24 µM (inactive) in assay [4]; 2.94 µM (inactive) in assay [5]; 4.38 µM (inactive) in assay [6]. Further, the GI50 in assay [7] was 2 µM (inactive); in [8], 2.86 µM (inactive); in assay [9] it was 1.04 µM (active); in assay [10], 2.96 µM (inactive); in [11], 2.68 µM (inactive); in assay [12], 1.58 µM (inactive). Also, the GI50 was 2.64 µM (inactive) in [13]; 6.35 µM (inactive) in assay [14]; 1.91 µM (inactive) in assay [15]; 2.9 µM (inactive) in assay [16]; 4.47 µM (inactive) in [17]; 5.77 µM (inactive) in [18]. In addition, the results for the GI50 in [19] and in [20] were 3.79 µM (inactive) and 2.07 µM (inactive), respectively.
